The results in this text go back to ChEMBL document CHEMBL1134973, “Modification of the pyridine moiety of non-peptidyl indole GnRH receptor antagonists” (Bioorg Med Chem Lett, 2002).

Molecules are shown by their SMILES.

In data set [1] the target is T1, Gonadotropin-releasing hormone receptor (Homo sapiens, UniProt P30968).
T1 sequence (P30968 whole entry): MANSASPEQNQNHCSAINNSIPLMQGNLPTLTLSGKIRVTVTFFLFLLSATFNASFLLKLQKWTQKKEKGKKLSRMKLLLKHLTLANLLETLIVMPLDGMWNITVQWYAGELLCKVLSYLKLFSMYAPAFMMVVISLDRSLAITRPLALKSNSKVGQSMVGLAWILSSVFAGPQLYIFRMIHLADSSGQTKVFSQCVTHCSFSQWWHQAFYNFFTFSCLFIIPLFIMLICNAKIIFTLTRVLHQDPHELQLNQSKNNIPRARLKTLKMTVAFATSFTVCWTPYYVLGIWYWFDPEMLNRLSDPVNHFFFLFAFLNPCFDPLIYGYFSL
Nature of the data set: Concentration required for the inhibition of I-125 labeled buserelin binding to the human Gonadotropin-releasing hormone receptor.

Data set [2] deals with T1, Gonadotropin-releasing hormone receptor. Nature of the data set: Concentration required for the inhibition of phosphatidyl inositol hydrolysis in chinese hamster ovary cells expressing human GnRH receptor (Gonadotropin Release Hormone receptor). Type of data set: functional, cell-based.
Data set [3] is described as follows: Oral bioavailability in dog. The class given is ADME, organism-based, Canis lupus familiaris. To be noted: in vivo.
Data set [4] is described as follows: Half-life of compound in plasma of dog was determined. Type of data set: ADME, organism-based, Canis lupus familiaris.
Data set [5] in a line: Half-life of compound was determined in dogs. The class given is ADME, organism-based, Canis lupus familiaris. To be noted: dog, in vivo.
Data set [6] is described as follows: Half-life of compound was determined in rats. The class given is ADME, organism-based. To be noted: rat, in vivo.
Data set [7] in a line: Oral bioavailability of compound was determined in rats. The class given is ADME, organism-based. Conditions: rat, in vivo.

`Cc1cc(C)cc(-c2[nH]c3ccc(C(C)(C)C(=O)N4CC5CCC4CC5)cc3c2[C@H](C)CNCCc2cc[n+]([O-])cc2C)c1`: the IC50 was 0.8 nM in data set [1] and 26 nM in data set [2].
The like results for `Cc1cc(C)cc(-c2[nH]c3ccc(C(C)(C)C(=O)N4CC5CCC4CC5)cc3c2[C@H](C)CNCCc2ccnc(C(=O)O)c2)c1` were, in that order, 8.2 nM and 371 nM.
The matching figures for `CC(=O)OCc1cc(CCNC[C@@H](C)c2c(-c3cc(C)cc(C)c3)[nH]c3ccc(C(C)(C)C(=O)N4CC5CCC4CC5)cc23)ccn1`: 0.4 nM and 22 nM.
The matching figures for `Cc1cc(C)cc(-c2[nH]c3ccc(C(C)(C)C(=O)N4CC5CCC4CC5)cc3c2[C@H](C)CNCCc2ccncc2C)c1`: 0.8 nM and 48 nM.
Take `CC(=O)c1cc(CCNC[C@@H](C)c2c(-c3cc(C)cc(C)c3)[nH]c3ccc(C(C)(C)C(=O)N4CC5CCC4CC5)cc23)ccn1`: the IC50 in data set [1] was determined as 0.6 nM; in data set [2], 12 nM.
For the molecule `Cc1cc(C)cc(-c2[nH]c3ccc(C(C)(C)C(=O)N4CC5CCC4CC5)cc3c2[C@H](C)CNCCc2ccnc(C#N)c2)c1`, the 50% inhibitory concentration (IC50) was 0.7 nM in data set [1] and 11 nM in data set [2].
Take `Cc1cc(C)cc(-c2[nH]c3ccc(C(C)(C)C(=O)N4CC5CCC4CC5)cc3c2[C@H](C)CNCCc2ccnc(CO)c2)c1`: the results for the IC50 in data set [1] and in data set [2] were 0.4 nM and 7.5 nM, respectively. The molecule also returned a bioavailability in data set [3] of 15%. In data set [4], this molecule had a half-life of 2 h.
As for `Cc1cc(C)cc(-c2[nH]c3ccc(C(C)(C)C(=O)N4CC5CCC4CC5)cc3c2[C@H](C)CNCCc2cc(C)[n+]([O-])c(C)c2)c1`, the IC50 in data set [1] is 0.5 nM; in data set [2], 10 nM. Besides, the half-life in data set [5] was 7 h. The bioavailability in data set [3] stood at 29%.
Take `Cc1cc(C)cc(-c2[nH]c3ccc(C(C)(C)C(=O)N4CC5CCC4CC5)cc3c2[C@H](C)CNCCc2ccnc(C(C)(C)O)c2)c1`: the half-maximal inhibitory concentration (IC50) in data set [1] worked out at 0.7 nM; in data set [2], 106 nM.
The like results for `Cc1cc(C)cc(-c2[nH]c3ccc(C(C)(C)C(=O)N4CC5CCC4CC5)cc3c2[C@H](C)CNCCc2ccnc(C(C)O)c2)c1` (stereo partly specified) were, in that order, 0.6 nM and 20 nM.
With `Cc1cc(C)cc(-c2[nH]c3ccc(C(C)(C)C(=O)N4CC5CCC4CC5)cc3c2[C@H](C)CNCCc2cc[n+]([O-])cc2)c1`, the half-maximal inhibitory concentration (IC50) in data set [1] stood at 0.3 nM; in data set [2], 6.4 nM. Further, in data set [3], the bioavailability was 14%.
As to `COCc1cc(CCNC[C@@H](C)c2c(-c3cc(C)cc(C)c3)[nH]c3ccc(C(C)(C)C(=O)N4CC5CCC4CC5)cc23)ccn1`, the half-inhibitory concentration (IC50) in data set [1] was determined as 0.7 nM; in data set [2] it was 55 nM.
The matching figures for `COC(=O)c1cc(CCNC[C@@H](C)c2c(-c3cc(C)cc(C)c3)[nH]c3ccc(C(C)(C)C(=O)N4CC5CCC4CC5)cc23)ccn1`: 0.9 nM and 25 nM.
With `Cc1cc(C)cc(-c2[nH]c3ccc(C(C)(C)C(=O)N4CC5CCC4CC5)cc3c2[C@H](C)CNCCc2ccnc(C)c2)c1`, the half-maximal inhibitory concentration (IC50) in data set [1] worked out at 0.9 nM; in data set [2], 8.7 nM. Moreover, the bioavailability in data set [3] is 36%.
On to `Cc1cc(C)cc(-c2[nH]c3ccc(C(C)(C)C(=O)N4CC5CCC4CC5)cc3c2[C@H](C)CNCCc2cc(C)nc(C)c2)c1`, for which the values for the IC50 in data set [1] and in data set [2] were 0.4 nM and 24 nM, respectively.
With `Cc1cc(C)cc(-c2[nH]c3ccc(C(C)(C)C(=O)N4CC5CCC4CC5)cc3c2[C@H](C)CNCCc2cc[n+]([O-])c(C)c2)c1`, the IC50 in data set [1] came to 0.3 nM; in data set [2] it was 5.9 nM. Also, the figures for the half-life in data set [5] and in data set [6] were 5 h and 2 h, respectively. The bioavailability was 25% in data set [3] and 23% in data set [7].
`CCc1cc(CCNC[C@@H](C)c2c(-c3cc(C)cc(C)c3)[nH]c3ccc(C(C)(C)C(=O)N4CC5CCC4CC5)cc23)ccn1`: the IC50 turned out to be 3.3 nM in data set [1] and 19 nM in data set [2].
The like results for `CCCc1cc(CCNC[C@@H](C)c2c(-c3cc(C)cc(C)c3)[nH]c3ccc(C(C)(C)C(=O)N4CC5CCC4CC5)cc23)ccn1` were, in that order, 4.6 nM and 62 nM.
